Laboratory results reported in article PMC8504695, “Structure-Based Virtual Screening and Identification of Potential Inhibitors of SARS-CoV-2 S-RBD and ACE2 Interaction” (Frontiers in Chemistry, 2021).

Key:
[1] = target: SARS-CoV-2 S-RBD/ACE2 interaction (UniProt P0DTC2+Q9BYF1); assay: cell-based; parameters: species or system SARS-CoV-2 / human; details: for inhibition at 20 µM / inhibition at 50 µM: HEK293; for IC50: HEK293 cells, 3 h incubation, n = 3, read-out: IC50 NanoBiT (inhibition of SARS-CoV-2 S-RBD/ACE2 interaction)
SARS-CoV-2-S pseudovirus = assay: microbe, parasite or virus in culture; assay type: cell-based; details: for IC50: Pseudovirus, HEK-293T, read-out: IC50 of Anti-SARS-CoV-2-S pseudovirus; for %I, SARS-CoV-2-S pseudovirus inhibition ratio at MNCC: fitted from the inhibition curve
NanoLuc luciferase = NanoLuc luciferase (Oplophorus gracilirostris, UniProt Q9GV45, A31E/A60N/A81I/F95D/I117V/K70R/L54V/L99Q/M102K/N193R/P142E/Q151K/Q38R/Q45L/V71I/Y165I); assay: cell-based; details: read-out: IC50 NanoLuc (inhibition of NanoLuc luciferase)
HEK293 cells = details: human
in vitro = details: human
[2] = system: ACE2-expressing HEK293T cells; details: concentration required to retain cell viability by 90%
SARS-CoV-2 S-RBD = SARS-CoV-2 S-RBD (Severe acute respiratory syndrome coronavirus 2, UniProt P0DTC2); assay: SPR binding assay, immobilized S-RBD (BIAcore T200); details: for Kd: immobilized S-RBD, PBS pH 7.4, 25°C; for Binding to SARS-CoV-2 S-RBD by SPR (in words): up to 100,000 nM analyte
human ACE2 = human ACE2 (Homo sapiens, UniProt Q9BYF1); assay: SPR binding assay, immobilized ACE2 (BIAcore T200); details: for Kd: immobilized ACE2, PBS pH 7.4, 25°C; for Binding to human ACE2 by SPR (in words): up to 100,000 nM analyte
Experimental: A BIAcore T200 instrument (GE Healthcare Life Sciences, United States) was used to evaluate the binding affinity of the test compounds to human ACE2 or SARS-CoV-2 S-RBD as previously described ([Li et al., 2017]). Briefly, both proteins were respectively immobilized on the different channels of CM5 sensor chip by a standard amine-coupling approach at a flow rate of 10 μL/min in 10 mM sodium acetate buffer (pH 4.0). The sensor surface was activated with a 7 min injection of the mixture of 50 mM N-hydroxysuccinimide (NHS) and 200 mM 1-ethyl-3-(3-dimethylaminopropyl) carbodiimide (EDC). Then 10 μg/ml of human ACE2 or 50 μg/ml of SARS-CoV-2 S-RBD was injected for 420 s and the surface was blocked with 1 M ethanolamine, pH 8.5. Series concentrations of the test compounds were injected into the flow system at a flow rate of 30 μL/min for 90 s, and the dissociation was 120 s. All binding analysis was performed in phosphate buffered saline (PBS) with 0.05% (v/v) Tween-20 and 1% DMSO (pH 7.4) at 25°C. Prior to analysis, double reference subtractions and solvent corrections were made to eliminate bulk refractive index changes, injection noise, and data drift. The binding affinity was determined by fitting to a Langmuir 1:1 binding model within the BIAcore Evaluation software (GE Healthcare Life Sciences, United States).

SARS-CoV-2 pseudovirus = details: cited from earlier work

Sequence of NanoLuc luciferase (Q9GV45 other isoform, or with tags, fused parts or gaps with the stated changes): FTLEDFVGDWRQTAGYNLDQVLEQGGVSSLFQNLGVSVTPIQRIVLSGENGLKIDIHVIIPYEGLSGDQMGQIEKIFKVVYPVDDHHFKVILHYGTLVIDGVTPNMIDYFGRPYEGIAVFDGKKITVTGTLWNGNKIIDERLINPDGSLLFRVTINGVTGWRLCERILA
Sequence of human ACE2 (Q9BYF1 18-805): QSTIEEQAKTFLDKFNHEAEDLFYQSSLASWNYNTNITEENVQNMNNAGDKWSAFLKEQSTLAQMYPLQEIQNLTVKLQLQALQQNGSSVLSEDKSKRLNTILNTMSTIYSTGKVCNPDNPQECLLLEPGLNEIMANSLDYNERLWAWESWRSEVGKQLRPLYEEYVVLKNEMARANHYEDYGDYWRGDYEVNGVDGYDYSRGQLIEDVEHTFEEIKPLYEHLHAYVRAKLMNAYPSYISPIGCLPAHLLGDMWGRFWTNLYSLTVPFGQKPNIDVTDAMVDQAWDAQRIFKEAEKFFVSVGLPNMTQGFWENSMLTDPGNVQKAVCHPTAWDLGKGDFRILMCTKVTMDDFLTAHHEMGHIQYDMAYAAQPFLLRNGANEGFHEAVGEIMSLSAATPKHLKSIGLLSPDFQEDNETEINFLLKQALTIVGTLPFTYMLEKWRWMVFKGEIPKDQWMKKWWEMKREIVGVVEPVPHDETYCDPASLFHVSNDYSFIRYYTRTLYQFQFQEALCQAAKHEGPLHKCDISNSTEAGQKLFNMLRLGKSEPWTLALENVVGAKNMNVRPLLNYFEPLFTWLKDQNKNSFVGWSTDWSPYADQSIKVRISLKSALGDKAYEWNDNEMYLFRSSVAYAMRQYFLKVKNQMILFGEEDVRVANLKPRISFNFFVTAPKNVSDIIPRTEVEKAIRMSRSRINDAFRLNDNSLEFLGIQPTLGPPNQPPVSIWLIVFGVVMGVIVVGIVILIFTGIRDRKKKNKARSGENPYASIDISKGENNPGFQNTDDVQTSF
Sequence of SARS-CoV-2 S-RBD/ACE2 interaction (Q9BYF1 19-615 limits assumed, other chains not shown): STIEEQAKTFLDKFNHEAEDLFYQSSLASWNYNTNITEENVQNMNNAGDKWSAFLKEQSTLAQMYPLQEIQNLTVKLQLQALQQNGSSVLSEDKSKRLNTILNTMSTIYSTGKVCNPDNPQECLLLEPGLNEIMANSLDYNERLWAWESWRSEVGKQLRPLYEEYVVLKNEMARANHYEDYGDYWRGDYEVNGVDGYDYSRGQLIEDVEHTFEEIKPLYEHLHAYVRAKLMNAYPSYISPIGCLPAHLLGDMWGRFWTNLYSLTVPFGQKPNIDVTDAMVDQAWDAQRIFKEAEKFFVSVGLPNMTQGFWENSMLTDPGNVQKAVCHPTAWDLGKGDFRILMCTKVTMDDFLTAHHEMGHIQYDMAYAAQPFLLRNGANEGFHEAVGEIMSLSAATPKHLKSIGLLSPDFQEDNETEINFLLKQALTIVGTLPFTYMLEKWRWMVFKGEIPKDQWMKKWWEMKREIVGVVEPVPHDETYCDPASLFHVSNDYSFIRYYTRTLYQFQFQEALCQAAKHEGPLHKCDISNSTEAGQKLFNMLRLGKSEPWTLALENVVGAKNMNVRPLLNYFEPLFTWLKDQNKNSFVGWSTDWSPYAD

## O=C(N/N=C/c1cc([N+](=O)[O-])ccc1Cl)c1cccc(Br)c1 [DC-RA016-1]
[1]
  inhibition at 20 µM: 3.1%
  inhibition at 50 µM: 7.4%

## O=C(N/N=C/c1cc([N+](=O)[O-])ccc1Cl)c1ccccc1I [DC-RA016-2]
[1]
  inhibition at 20 µM: 0.8%
  inhibition at 50 µM: 22.5%

## O=C(N/N=C/c1cc([N+](=O)[O-])ccc1Cl)c1cccc([N+](=O)[O-])c1 [DC-RA016-3]
[1]
  inhibition at 20 µM: 1.7%
  inhibition at 50 µM: 24.2%

## Cc1ccccc1C(=O)N/N=C/c1cc([N+](=O)[O-])ccc1Cl [DC-RA016-4]
[1]
  inhibition at 20 µM: -3.8%
  inhibition at 50 µM: -24.9%

## O=C(N/N=C/c1cc([N+](=O)[O-])ccc1Cl)c1ccccc1O [DC-RA016-5]
[1]
  inhibition at 20 µM: 8.7%
  inhibition at 50 µM: 24.9%

## O=C(N/N=C/c1cc([N+](=O)[O-])ccc1Cl)c1ccc(O)cc1O [DC-RA016-6]
[1]
  inhibition at 20 µM: 1.9%
  inhibition at 50 µM: 2.9%

## O=C(N/N=C/c1cc([N+](=O)[O-])ccc1Cl)c1ccc(O)cc1 [DC-RA016-7]
[1]
  inhibition at 20 µM: 10.6%
  inhibition at 50 µM: 20.2%

## O=C(N/N=C/c1cc([N+](=O)[O-])ccc1Cl)c1ccc(O)c(O)c1 [DC-RA016-8]
[1]
  inhibition at 20 µM: 6.7%
  inhibition at 50 µM: -18.3%

## O=C(N/N=C/c1ccccc1O)c1cc(O)cc(O)c1 [DC-RA016-9]
[1]
  inhibition at 20 µM: 0.6%
  inhibition at 50 µM: 88.6%
  IC50: 73.8 µM

## Cc1ccccc1/C=N/NC(=O)c1cc(O)cc(O)c1 [DC-RA016-10]
[1]
  inhibition at 20 µM: -6.5%
  inhibition at 50 µM: -17.7%

## Cc1cccc(/C=N/NC(=O)c2cc(O)cc(O)c2)c1 [DC-RA016-11]
[1]
  inhibition at 20 µM: 4.8%
  inhibition at 50 µM: 12.7%

## O=C(N/N=C/c1ccc(Cl)c([N+](=O)[O-])c1)c1cc(O)cc(O)c1 [DC-RA016-12]
[1]
  inhibition at 20 µM: 61.3%
  inhibition at 50 µM: 88.9%
  IC50: 26.1 µM

## O=C(N/N=C/c1cc([N+](=O)[O-])ccc1Cl)c1cc(O)cc(O)c1 [DC-RA016]
SARS-CoV-2-S pseudovirus
  SI, selectivity index: >4.46
  IC50: 22.4 µM
  %I, SARS-CoV-2-S pseudovirus inhibition ratio at MNCC: 52.08%
NanoLuc luciferase
  IC50: > 100 µM
HEK293 cells
  CC50 / IC50 Cytotox (HEK293 cell proliferation): > 100.00 µM
In vitro
  CC50: > 100 µM
[2]
  MNCC, maximum non-cytotoxic concentration: 95.81 µM
SARS-CoV-2 S-RBD
  Kd: 85.1 µM
  Binding to SARS-CoV-2 S-RBD by SPR (in words): showed binding
[1]
  inhibition at 20 µM: 73.1%
  inhibition at 50 µM: 73.1%
  IC50: 26.6 µM
Human ACE2
  Kd: 147 µM
  Binding to human ACE2 by SPR (in words): could bind

## COc1ccc(C(=O)C[C@]2(O)C(=O)N(CCOc3ccccc3OC)c3ccccc32)c(OC)c1 [DC-RA076]
SARS-CoV-2-S pseudovirus
  SI, selectivity index: 2.95
  IC50: 8.37 µM
  %I, SARS-CoV-2-S pseudovirus inhibition ratio at MNCC: 5.75%
NanoLuc luciferase
  IC50: > 100 µM
HEK293 cells
  CC50 / IC50 Cytotox (HEK293 cell proliferation): > 100.00 µM
In vitro
  CC50: 24.7 µM
[2]
  MNCC, maximum non-cytotoxic concentration: 2.64 µM
SARS-CoV-2 S-RBD
  Binding to SARS-CoV-2 S-RBD by SPR (in words): no binding
[1]
  IC50: 75.6 µM
Human ACE2
  Binding to human ACE2 by SPR (in words): no binding

## COc1cc(-c2nc3ccccc3s2)ccc1OCC(=O)Nc1ccc(C)cc1 [DC-RA087]
SARS-CoV-2-S pseudovirus
  SI, selectivity index: >4.75
  IC50: 21.1 µM
  %I, SARS-CoV-2-S pseudovirus inhibition ratio at MNCC: 36.74%
NanoLuc luciferase
  IC50: > 100 µM
HEK293 cells
  CC50 / IC50 Cytotox (HEK293 cell proliferation): > 100.00 µM
In vitro
  CC50: > 100 µM
[2]
  MNCC, maximum non-cytotoxic concentration: 14.01 µM
SARS-CoV-2 S-RBD
  Binding to SARS-CoV-2 S-RBD by SPR (in words): No binding
[1]
  IC50: 86.2 µM
Human ACE2; immobilized ACE2
  kd to ACE2 (SPR): 0.3217 s⁻¹
Human ACE2; pH 7.4, immobilized ACE2, read-out: ka to ACE2 (SPR)
  kon: 56.4 M⁻¹ s⁻¹
Human ACE2
  Binding to human ACE2 by SPR (in words): could bind

## CCOc1ccc(N(CC(=O)Nc2ccccc2C(=O)NCc2ccco2)S(=O)(=O)c2ccc(OC)c(OC)c2)cc1 [DC-RA106]
SARS-CoV-2-S pseudovirus
  SI, selectivity index: >1.41
  IC50: 70.8 µM
  %I, SARS-CoV-2-S pseudovirus inhibition ratio at MNCC: 0.14%
NanoLuc luciferase
  IC50: > 100 µM
HEK293 cells
  CC50 / IC50 Cytotox (HEK293 cell proliferation): > 100.00 µM
In vitro
  CC50: > 100 µM
[2]
  MNCC, maximum non-cytotoxic concentration: 13.24 µM
SARS-CoV-2 S-RBD
  Kd: > 100 µM
  Binding to SARS-CoV-2 S-RBD by SPR (in words): showed binding
[1]
  IC50: 24.7 µM
Human ACE2
  Kd: > 100 µM
  Binding to human ACE2 by SPR (in words): could bind

## C=Cc1c(C)c2cc3nc(cc4[nH]c(cc5nc(cc1[nH]2)C(C)=C5CCC(=O)O)c(CCC(=O)OC)c4C)[C@@]1(C)C3=CC=C(C(=O)OC)[C@H]1C(=O)OC [Visudyne]
SARS-CoV-2 pseudovirus; cytotoxicity data not reported, ref Fu et al., 2020
  Antiviral activity against SARS-CoV-2 pseudovirus (in words): intense antiviral activity

## C[C@@]1(C(=O)O)CC[C@]2(C)CC[C@]3(C)C4=CC(=O)c5c(cc(O)c(O)c5C=O)[C@]4(C)CC[C@@]3(C)[C@@H]2C1 [demethylzeylasteral]
SARS-CoV-2 pseudovirus; under nontoxic concentration, ref Zhu et al., 2021
  Inhibitory activity against SARS-CoV-2 pseudovirus: approximately 7%
